The values below come from PMC6966912, “Inverted Binding of Non-natural Substrates in Strictosidine Synthase Leads to a Switch of Stereochemical Outcome in Enzyme-Catalyzed Pictet–Spengler Reactions” (Journal of the American Chemical Society, 2020).

Data set [1] deals with T1, OpSTR (strictosidine synthase from Ophiorrhiza pumila) (Ophiorrhiza pumila, UniProt Q94LW9). The experiment in a line: biochemical. Also noted: gene str.
In data set [2] the target is T1, OpSTR (strictosidine synthase from Ophiorrhiza pumila). Kind of data set: X-ray crystal structure (cocrystallization with racemate). In kind it is binding. The arrangement: gene str; N-terminal signal peptide removed for improved expression. Particulars: active site, near Glu276.
Substrate in data set [3]: CC(C)CC=O
Kind of data set: enzyme kinetics of Pictet-Spengler reaction. In kind it is biochemical, Ophiorrhiza pumila. Particulars: co-substrate tryptamine.

Turning to `CC1NCCc2c1[nH]c1ccccc21` (racemic) [rac-3d], it took 3400 ± 300 µM to reach half-maximal inhibition in data set [1] (IC50).

Turning to `CCC[C@@H]1NCCc2c1[nH]c1ccccc21` [3b, (S)-3b], in data set [2], the “X-ray crystal structure (cocrystallization with racemate)” value (from here on “X-ray crystal structure”) is “exclusively the (S)-enantiomers of 3a–c were identified in the active site of OpSTR”.

As to `C[C@@H]1NCCc2c1[nH]c1ccccc21` [(S)-3d], the IC50 (commonly the concentration that inhibits the measured activity by half) in data set [1] stood at 1600 ± 100 µM.

Turning to `CC[C@@H]1NCCc2c1[nH]c1ccccc21` [3c, (S)-3c], the “X-ray crystal structure” value in data set [2] is “exclusively the (S)-enantiomers of 3a–c were identified in the active site of OpSTR”.

For `CC(C)C[C@@H]1NCCc2c1[nH]c1ccccc21` [3a, (S)-3a], in data set [2], the “X-ray crystal structure” value is listed as “exclusively the (S)-enantiomers of 3a–c were identified in the active site of OpSTR”.

B1: OpSTR (strictosidine synthase from Ophiorrhiza pumila) (Ophiorrhiza pumila) (protein)
chain: SPEFFEFIEAPSYGPNAYAFDSDGELYASVEDGRIIKYDKPSNKFLTHAVASPIWNNALCENNTNQDLKPLCGRVYDFGFHYETQRLYIADCYFGLGFVGPDGGHAIQLATSGDGVEFKWLYALAIDQQAGFVYVTDVSTKYDDRGVQDIIRINDTTGRLIKYDPSTEEVTVLMKGLNIPGGTEVSKDGSFVLVGEFASHRILKYWLKGPKANTSEFLLKVRGPGNIKRTKDGDFWVASSDNNGITVTPRGIRFDEFGNILEVVAIPLPYKGEHIEQVQEHDGALFVGSLFHEFVGILHNYKSSVDHHQEKNSGGLNASFKEFSSF
notes: N-terminal signal peptide removed for improved expression
For the molecule B1, the Km (as a rule, the concentration of substrate that gives half-maximal velocity) in data set [3] is on record as 5.36 ± 0.83 mM.
